The values that follow come from patent publication US20240300946A1, “EGFR INHIBITORS” (Blueprint Medicines Corporation, priority 2021, published 2024).

Each structure is given as a SMILES string. Where two headings read alike, the source gives them in different places.

What is called IC50 is the midpoint of a concentration-inhibition curve.

The target in assay [1] is T1, EGFR (L858R T790 M C797S) (Homo sapiens, UniProt P00533, C797S/L858R/T790M).
T1 construct: purchased SignalChem E10-122VG
Kind of assay: Biochemical EGFR inhibition assay (Caliper mobility shift), LRTMCS mutant at 1 mM ATP. As to conditions: read-out: LRTMCS (PH) IC50 (nM) @ 1 mM ATP (Num). The procedure: Inhibitory effects of the compounds of the disclosure were measured in biochemical assays that measure the phosphorylation activity of EGFR enzyme phosphorylates 2.5 micromolar 5-FAM-[…]-CONH2 peptide substrate (FL-Peptide 22, PerkinElmer, 760366) in the presence of adenosine-5′-triphosphate (ATP) and varying concentrations of the test compound in 100 mM 2-[4-(2-hydroxyethyl)piperazin-1-yl]ethanesulfonic acid (HEPES), pH 7.5, 10 mM MgCl2, 0.015% Brij-35, 1 mM dithiothreitol (DTT), 1.0% dimethylsulfoxide (DMSO). Assays were performed at 1.0 mM ATP or at ATP Km of the EGFR enzymes. Reactions proceeded until between 10% to 20% total peptides were phosphorylated at room temperature (25° C.) and were terminated with 35 mM 2,2′,2″,2′″-(ethane-1,2-diyldinitrilo)tetraacetic acid (EDTA). Product was detected using the Caliper mobility shift detection method where the phosphorylated peptide (product) and substrate were electrophoretically separated and measured. Percent activity was plotted against log concentration of compound and points to generate an apparent IC50. The following enzyme forms of EGFR were examples that were used in these assays: • EGFR WT (SignalChem, E10-112G) • EGFR (L858R T790 M C797S) (SignalChem, E10-122VG) • EGFR (d746-750) T790 M C797S (SignalChem, E10-122UG) • EGFR L858R (SignalChem, E10-122BG) • EGFR (d746-750) (SignalChem, E10-122JG)

For assay [2], the system named is phosphorylation of EGFR in NCI-H1975 cell line that harbors the EGFR L858R T790 M mutations. The assay is described as follows: NCI-H1975 pEGFR AlphaLISA assay. As to conditions: p-EGFR (Tyr1068), 4-5 hours incubation, read-out: Ext pEGFR H1975 GMean IC50 (nM) Protocol: @ Pharmaron AlphaLISA (Num). The format is cell-based. The procedure: Inhibitory effects of the compounds of the disclosure were evaluated in cellular assays that measure level of intracellular phosphorylation of EGFR in NCI-H1975 cell line that harbors the EGFR L858R T790 M mutations (ATCC, CRL-5908) using AlphaLISA sureFire ultra p-EGFR (Tyr1068) assay kit (PerkinElmer, ALSU-PEGFR-A50K). The NCI-H1975 cells were seeded at 12.5K/well in 22 μL into 384 well opti plate (PerkinElmer, 6007299) and adhering overnight at 37° C./5% CO2. On the next day, the test compounds and DMSO control were added into H1975 cell plate followed by incubation at 37° C./5% CO2 for 4-5 hours. The cells were then spin down in the 384-well plate and lysed with 10 μL of 1× AlphaLISA lysis buffer followed by shaking at 600 rpm for 10 minutes at room temperature. After that, 5 μL of an acceptor bead mix was added to each well followed by incubation at room temperature for 1.5-2 h in dark. Then 5 μL of a donor bead mix was added to each well followed by overnight incubation at room temperature in dark. On the next day, the plate was read at a compatible plate reader to obtain pEGFR signal. Percent of pEGFR inhibition was plotted against log concentration of compounds to generate IC50 values.
On the technique in general: Bead proximity is the source of the signal in Alpha formats.

Setting [3] is: Homo sapiens, NCI-H1975, NCI-H1975 cells.

T1 sequence (P00533 25-1210 T790M/C797S/L858R): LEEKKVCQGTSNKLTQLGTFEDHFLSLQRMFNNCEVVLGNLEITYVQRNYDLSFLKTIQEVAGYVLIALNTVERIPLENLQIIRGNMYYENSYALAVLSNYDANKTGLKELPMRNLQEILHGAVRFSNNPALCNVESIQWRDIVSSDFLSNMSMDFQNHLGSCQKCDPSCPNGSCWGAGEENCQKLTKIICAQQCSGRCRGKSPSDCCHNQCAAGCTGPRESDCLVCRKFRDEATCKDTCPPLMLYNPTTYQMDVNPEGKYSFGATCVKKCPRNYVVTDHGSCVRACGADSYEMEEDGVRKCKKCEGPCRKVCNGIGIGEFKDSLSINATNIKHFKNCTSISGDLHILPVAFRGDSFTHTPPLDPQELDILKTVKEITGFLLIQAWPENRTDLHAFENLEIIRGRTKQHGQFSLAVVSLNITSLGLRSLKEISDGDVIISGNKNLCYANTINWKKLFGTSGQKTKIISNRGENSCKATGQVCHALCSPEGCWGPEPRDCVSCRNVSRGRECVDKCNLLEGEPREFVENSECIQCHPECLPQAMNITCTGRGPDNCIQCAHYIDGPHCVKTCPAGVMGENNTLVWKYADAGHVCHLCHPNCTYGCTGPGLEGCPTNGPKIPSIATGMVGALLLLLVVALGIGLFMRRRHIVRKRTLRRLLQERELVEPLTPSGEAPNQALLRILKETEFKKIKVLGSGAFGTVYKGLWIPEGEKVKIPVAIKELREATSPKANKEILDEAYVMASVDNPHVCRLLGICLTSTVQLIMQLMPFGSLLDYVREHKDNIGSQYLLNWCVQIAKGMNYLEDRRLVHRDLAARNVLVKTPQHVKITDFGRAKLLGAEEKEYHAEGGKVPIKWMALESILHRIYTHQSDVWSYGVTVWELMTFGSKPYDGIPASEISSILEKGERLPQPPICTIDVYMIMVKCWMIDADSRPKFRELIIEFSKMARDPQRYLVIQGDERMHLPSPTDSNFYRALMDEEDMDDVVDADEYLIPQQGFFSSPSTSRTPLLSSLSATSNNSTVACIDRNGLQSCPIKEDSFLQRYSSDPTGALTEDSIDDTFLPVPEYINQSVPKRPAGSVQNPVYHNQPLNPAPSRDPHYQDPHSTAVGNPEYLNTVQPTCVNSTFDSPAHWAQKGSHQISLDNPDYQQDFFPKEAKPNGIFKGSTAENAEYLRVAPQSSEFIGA

On to `CC(C)c1ccc(N2CC(CS(C)(=O)=O)C2)c2cnc(Nc3ccnc([C@H]4C[C@@H]4C(F)F)n3)cc12` (single isomer, unassigned) [Example 16, N-(2-((1S,2S)-2-(difluoromethyl)cyclopropyl)pyrimidin-4-yl)-5-isopropyl-8-(3-((methylsulfonyl)methyl)azetidin-1-yl)isoquinolin-3-amine or N-(2-((1R,2R)-2-(difluoromethyl)cyclopropyl)pyrimidin-4-yl)-5-isopropyl-8-(3-((methylsulfonyl)methyl)azetidin-1-yl)isoquinolin-3-amine], for which the values for the concentration for half-maximal inhibition (IC50) in assay [1] and in assay [2] (setting [3]) were more than 100 nM and more than 50 nM, respectively.

For the compound `CC(C)c1ccc(N2CC(CS(C)(=O)=O)C2)c2cnc(Nc3ccnc([C@H]4C[C@@H]4C(F)F)n3)cc12` (single isomer, unassigned) [Example 17, N-(2-((1S,2S)-2-(difluoromethyl)cyclopropyl)pyrimidin-4-yl)-5-isopropyl-8-(3-((methylsulfonyl)methyl)azetidin-1-yl)isoquinolin-3-amine or N-(2-((1R,2R)-2-(difluoromethyl)cyclopropyl)pyrimidin-4-yl)-5-isopropyl-8-(3-((methylsulfonyl)methyl)azetidin-1-yl)isoquinolin-3-amine], the IC50 is more than 100 nM in assay [1] and more than 50 nM in assay [2] (NCI-H1975 cells).

Regarding `C[C@H](CO)c1ccc(N2CC(CS(C)(=O)=O)C2)c2cnc(Nc3ccnc(-c4cnn(C)c4)n3)cc12` (single isomer, unassigned) [Example 18, (S)-2-(3-((2-(1-methyl-1H-pyrazol-4-yl)pyrimidin-4-yl)amino)-8-(3-((methylsulfonyl)methyl)azetidin-1-yl)isoquinolin-5-yl)propan-1-ol or (R)-2-(3-((2-(1-methyl-1H-pyrazol-4-yl)pyrimidin-4-yl)amino)-8-(3-((methylsulfonyl)methyl)azetidin-1-yl)isoquinolin-5-yl)propan-1-ol], the concentration for half-maximal inhibition (IC50) in assay [1] was not above 15 nM; in assay [2] (setting [3]) it was more than 50 nM.

Regarding `C[C@H](CO)c1ccc(N2CC(CS(C)(=O)=O)C2)c2cnc(Nc3ccnc(-c4cnn(C)c4)n3)cc12` (single isomer, unassigned) [Example 19, (S)-2-(3-((2-(1-methyl-1H-pyrazol-4-yl)pyrimidin-4-yl)amino)-8-(3-((methylsulfonyl)methyl)azetidin-1-yl)isoquinolin-5-yl)propan-1-ol or (R)-2-(3-((2-(1-methyl-1H-pyrazol-4-yl)pyrimidin-4-yl)amino)-8-(3-((methylsulfonyl)methyl)azetidin-1-yl)isoquinolin-5-yl)propan-1-ol], the IC50 in assay [1] was not above 15 nM; in assay [2] (NCI-H1975 cells), more than 50 nM.

On to `Cc1ncc(-c2nccc(Nc3cc4c(C(C)C)ccc(N5C[C@H](CS(C)(=O)=O)[C@H]5C)c4cn3)n2)s1` (single isomer, unassigned) [Example 20, 5-isopropyl-8-(2R,3S)-2-methyl-3-((methylsulfonyl)methyl)azetidin-1-yl)-N-(2-(2-methylthiazol-5-yl)pyrimidin-4-yl)isoquinolin-3-amine or 5-isopropyl-8-((2S,3R)-2-methyl-3-((methylsulfonyl)methyl)azetidin-1-yl)-N-(2-(2-methylthiazol-5-yl)pyrimidin-4-yl)isoquinolin-3-amine], for which the figures for the IC50 in assay [1] and in assay [2] (NCI-H1975 cells) were not above 15 nM and less than 10 nM, respectively.

Take `Cc1ncc(-c2nccc(Nc3cc4c(C(C)C)ccc(N5C[C@H](CS(C)(=O)=O)[C@H]5C)c4cn3)n2)s1` (single isomer, unassigned) [Example 21, 5-isopropyl-8-((2S,3S)-2-methyl-3-((methylsulfonyl)methyl)azetidin-1-yl)-N-(2-(2-methylthiazol-5-yl)pyrimidin-4-yl)isoquinolin-3-amine or 5-isopropyl-8-((2S,3R)-2-menthyl-3-((methylsulfonyl)methyl)azetidin-1-yl)-N-(2-(2-methylthiazol-5-yl)pyrimidin-4-yl)isoquinolin-3-amine]: the IC50 in assay [1] was more than 100 nM; in assay [2] (NCI-H1975 cells), more than 50 nM.

As to `CC(C)c1ccc(N2C[C@H](CS(C)(=O)=O)[C@H]2C)c2cnc(Nc3ccnc(-c4cccnc4)n3)cc12` (single isomer, unassigned) [Example 22, 5-isopropyl-8-((2R,3S)-2-methyl-3-((methylsulfonyl)methyl)azetidin-1-yl)-N-(2-(pyridin-3-yl)pyrimidin-4-yl)isoquinolin-3-amine or 5-isopropyl-8-((2S,3R)-2 methyl-3-((methylsulfonyl)methyl)azetidin-1-yl)-N-(2-(pyridin-3-yl)pyridin-4-yl) isoquinolin-3-amine], the figures for the IC50 in assay [1] and in assay [2] (setting [3]) were not above 15 nM and less than 10 nM, respectively.

Turning to `CC(C)c1ccc(N2C[C@H](CS(C)(=O)=O)[C@H]2C)c2cnc(Nc3ccnc(-c4cnn(C)c4)n3)cc12` (single isomer, unassigned) [Example 23, 5-isopropyl-N-(2-(1-methyl-1H-pyrazol-4-yl)pyrmidin-4-yl)-8-((2S,3S)-2-methyl-3-((methylsulfonyl)methy)azetidin-1-yl)isoquinolin-3-amine or 5-isopropyl-N-(2-(1-methyl-1H-pyrazol-4-yl)pyrimidin-4-yl)-8-((2S,3R)-2-methyl-3-((methylsulfonyl)methyl)azetidin-1-yl)isoquinolin-3-amine], the half-maximal inhibitory concentration (IC50) in assay [1] was not above 15 nM; in assay [2] (setting [3]), 10 to 20 nM.

As for `CC(C)c1cnc(N2CC(CS(C)(=O)=O)C2)c2cnc(Nc3ccnc([C@]4(C)C[C@@H](O)C4)n3)cc12` (single isomer, unassigned) [Example 24, (1r,3r)-3-(4-((5-isopropyl-8-(3-((methylsulfonyl)methyl)azetidin-1-yl)-2,7-naphthyridin-3-yl)amino)pyrimidin-2-yl)-3-methylcyclobutan-1-ol or (1s,3s)-3-(4-((5-isopropyl-8-(3-((methylsulfonyl)methyl)azetidin-1-yl)-2,7-naphthyridin-3-yl)amino)pyrimidin-2-yl)-3-methylcyclobutan-1-ol], the figures for the IC50 in assay [1] and in assay [2] (setting [3]) were 30 to 100 nM and more than 50 nM, respectively.

Regarding `CC(C)c1cnc(N2CC(CS(C)(=O)=O)C2)c2cnc(Nc3ccnc([C@]4(C)C[C@@H](O)C4)n3)cc12` (single isomer, unassigned) [Example 25, (1r,3r)-3-(4-((5-isopropyl-8-(3-((methylsulfonyl)methyl)azetidin-1-yl)-2,7-naphthyridin-3-yl)amino)pyrimidin-2-yl)-3-methylcyclobutan-1-ol or (1s,3s)-3-(4-((5-isopropyl-8-(3-((methylsulfonyl)methyl)azetidin-1-yl)-2,7-naphthyridin-3-yl)amino)pyrimidin-2-yl)-3-methylcyclobutan-1-ol], the IC50 in assay [1] was more than 100 nM; in assay [2] (NCI-H1975 cells), more than 50 nM.

On to `Cc1ncc(-c2nccc(Nc3cc4c(C(C)C)cnc(N5CC(CS(C)(=O)=O)C5)c4cn3)n2)s1` [Example 1, 5-isopropyl-8-(3-((methylsulfonyl)methyl)azetidin-1-yl)-N-(2-(2-methylthiazol-5-yl)pyrimidin-4-yl)-2,7-naphthyridin-3-amine], for which the values for the half-maximal inhibitory concentration (IC50) in assay [1] and in assay [2] (setting [3]) were not above 15 nM and 10 to 20 nM, respectively.

In the case of `CC(C)c1cnc(N2CC(CS(C)(=O)=O)C2)c2cnc(Nc3ccnc(-c4cnn(C)c4)n3)cc12` [Example 2, 5-isopropyl-N-(2-(1-methyl-1H-pyrazol-4-yl)pyrimidin-4-yl)-8-(3-((methylsulfonyl)methyl)azetidin-1-yl)-2,7-naphthyridin-3-amine], the IC50 in assay [1] is not above 15 nM; in assay [2] (setting [3]) it was 10 to 20 nM.

With `CC(C)c1cnc(N2CC(CS(C)(=O)=O)C2)c2cnc(Nc3ccnc(C4(C)CC(=O)C4)n3)cc12` [Example 3, 3-(4-((5-isopropyl-8-(3-((methylsulfonyl)methyl)azetidin-1-yl)-2,7-naphthyridin-3-yl)amino)pyrimidin-2-yl)-3-methylcyclobutan-1-one], the figures for the IC50 in assay [1] and in assay [2] (setting [3]) were more than 100 nM and more than 50 nM, respectively.
